Source: US8697867B2, “Cross-linked cyclic amine compounds and agents for pest control” (Nippon Soda Co., Ltd., priority 2005, dated 2014)

Legend:
Tetranychus urticae = experiment: Effectiveness against Tetranychus urticae (adulticidal rate on common bean leaf); type: in vivo; conditions: 125 ppm wettable powder dilution; adult females resistant to organophosphorus pesticides; 3 days after application; 25° C., 65% humidity
Panonychus citri = experiment: Effectiveness against Panonychus citri (mandarin orange leaf in petri dish); type: in vivo; conditions: 125 ppm emulsion dilution; adults removed 3 days after application; examined on the 11th day; 25° C., 65% humidity
Procedure: 10 adult female Panonychus citri were inoculated on the leaf of a mandarin orange, which was placed in a petri dish. After the inoculation, the drug solution, which was prepared by following the method of the emulsion shown in Example 2 of the drugs and by diluting with water to achieve the compound concentration of 125 ppm, was applied using a rotary spreading tower. The dish was placed in a temperature-controlled room where the temperature and humidity were set to 25° C. and 65% respectively, adults were removed 3 days after the application, and whether eggs laid during these 3 days could grow to become adults was examined on the 11th day.

Row | SMILES | insecticidal rate (adulticidal rate) (Tetranychus urticae) | insecticidal rate (whether eggs laid during 3 days could grow to adults) (Panonychus citri)
1 | CCCOc1cc(C(F)(F)F)ccc1OC1CC2CCC(C1)N2c1ccc(C(F)(F)F)c(F)c1 (stereo not drawn) [Compound 4-70, 3α-[2-n-propoxy-4-(trifluoromethyl)phenoxy]-8-[3-fluoro-4-(trifluoromethyl)phenyl]-8-azabicyclo[3.2.1]octane] | 100% | 100%
2 | FC(F)(F)c1ccc(OC2CC3CCC(C2)N3c2ccc(C(F)(F)F)cn2)nc1 (stereo not drawn) [Compound 2-3, 3α-(5-trifluoromethyl-2-pyridyloxy)-8-(5-trifluoromethyl-pyridin-2-yl)-8-azabicyclo[3.2.1]octane] | 100% | –
